In brackets after ≈: the same amount, converted by molar mass.
How the values were obtained:
Format in all cases: functional
Staphylococcus aureus = assay: In vitro antibacterial activity against Staphylococcus aureus 853
Bacteroides fragilis = assay: In vitro antibacterial activity against Bacteroides fragilis 2017
Streptococcus pneumoniae = assay: In vitro antibacterial activity against Streptococcus pneumoniae 3512
Escherichia coli [1] = assay: In vitro antibacterial activity against Escherichia coli 1850
Escherichia coli [2] = assay: In vitro antibacterial activity agains Escherichia coli 1852
Enterococcus faecalis = assay: In vitro antibacterial activity against Enterococcus faecalis 850
Clostridium perfringens = assay: In vitro antibacterial activity against Clostridium perfringens 615
Escherichia coli [3] = assay: In vitro antibacterial activity against Escherichia coli 1850.

Row | Compound | MIC (Staphylococcus aureus) | MIC (Bacteroides fragilis) | MIC (Streptococcus pneumoniae) | MIC (Escherichia coli [1]) | MIC (Escherichia coli [2]) | MIC (Enterococcus faecalis) | MIC (Clostridium perfringens) | MIC (Escherichia coli [3])
1 | C[C@@H](O)[C@H]1C(=O)N2C(C(=O)[O-])=C3COCC[C@H]3[C@H]12.[K+] | 2 mg/L | 0.1 mg/L | 0.1 mg/L | 2 mg/L | 4 mg/L | 32 mg/L | 2 mg/L | 
2 | C[C@@H](O)[C@H]1C(=O)N2C(C(=O)[O-])=C3CCCO[C@@H]3[C@H]12.[K+] | 0.5 mg/L | 0.1 mg/L | 0.06 mg/L | 1 mg/L | 1 mg/L | 1 mg/L | 0.06 mg/L | 
3 | C[C@@H](O)[C@H]1C(=O)N2C(C(=O)[O-])=C3CCCC[C@@H]3[C@H]12.[K+] | 1 mg/L | 1 mg/L | 0.06 mg/L | 1 mg/L | 1 mg/L | 8 mg/L | 0.1 mg/L | 
4 | C[C@@H](O)[C@H]1C(=O)N2C(C(=O)[O-])=C3COCC[C@@H]3[C@H]12.[K+] | 0.5 mg/L | 0.2 mg/L | 0.06 mg/L | 0.5 mg/L | 0.5 mg/L | 8 mg/L | 0.5 mg/L | 
5 | C[C@@H](O)[C@H]1C(=O)N2C(C(=O)[O-])=C3CCCO[C@H]3[C@H]12.[K+] | 1 mg/L | 0.2 mg/L | 0.2 mg/L | 2 mg/L | 4 mg/L | 16 mg/L | 1 mg/L | 
6 | C[C@@H](O)[C@H]1C(=O)N2C(C(=O)[O-])=C3CCCC[C@H]3[C@H]12.[K+] | 1 mg/L | 0.5 mg/L | 0.5 mg/L |  | 2 mg/L | 16 mg/L | 1 mg/L | 2 mg/L
7 | CO[C@H]1CCC[C@H]2C1=C(C(=O)O)N1C(=O)[C@H]([C@@H](C)O)[C@@H]21 [SANFETRINEM] | 0.2 mg/L (≈ 0.711 µM) | 0.06 mg/L (≈ 0.213 µM) | < 0.01 mg/L | 0.5 mg/L (≈ 1.78 µM) | 0.5 mg/L (≈ 1.78 µM) | 1 mg/L (≈ 3.55 µM) | 0.03 mg/L (≈ 0.107 µM) | 

Reference: ChEMBL document CHEMBL1129696, “5- and 7-oxa trinems: their synthesis and biological evaluation” (1996)
